16 compounds from ChEMBL document CHEMBL5576159, “Discovery and structure-activity relationship study of novel isoxazole-based small molecules targeting Zika virus infections” (RSC Med Chem, 2024) can be followed below.

Molecules are shown by their SMILES.

Data set [1] relates to Zika virus. The experiment in a line: Antiviral activity against ZIKV BR infected in cervical cells. The following applies: Cervical cell.
Data set [2] is described as follows: Cytotoxicity against African green monkey Vero cells infected with ZIKV MR766 incubated for 48 hrs by immunofluorescence analysis. Conditions: chlorocebus sabaeus, Vero cells infected with ZIKV PRVABC59.
Data set [3] deals with Zika virus. The experiment in a line: Antiviral activity against ZIKV MR766 infected in Vero cells measured after 48 hrs by immunofluorescence analysis.
Data set [4] can be described thus: Selectivity index, ratio of CC50 for African green monkey Vero cells infected with ZIKV MR766 to EC50 for ZIKV MR766 infected in Vero cells.
Data set [5] has as its target Cytochrome P450 2D6 (Homo sapiens, UniProt P10635). The experiment in a line: Inhibition of CYP2D6 in human liver microsomes using dextromethorphan as substrate preincubated for 5 mins followed by substrate and NADPH addition and measured after 20 mins by LC-MS/MS analysis. On the technique in general: Liver microsomes are vesicles of endoplasmic reticulum, rich in cytochrome P450 enzymes.

Data set [6] in a line: Stability in rat liver microsomes assessed as compound remaining at 1 uM incubated for 30 mins by LC-MS/MS analysis.
Data set [7] is described as follows: Plasma protein binding in human at 5 uM incubated for 4 hrs under shaking condition by LC-MS/MS analysis.
For data set [8], the target named is hERG (Homo sapiens, UniProt Q12809). Kind of data set: Inhibition of hERG at 10 uM incubated for 2 hrs relative to control.
Chain of hERG (Q12809 whole entry): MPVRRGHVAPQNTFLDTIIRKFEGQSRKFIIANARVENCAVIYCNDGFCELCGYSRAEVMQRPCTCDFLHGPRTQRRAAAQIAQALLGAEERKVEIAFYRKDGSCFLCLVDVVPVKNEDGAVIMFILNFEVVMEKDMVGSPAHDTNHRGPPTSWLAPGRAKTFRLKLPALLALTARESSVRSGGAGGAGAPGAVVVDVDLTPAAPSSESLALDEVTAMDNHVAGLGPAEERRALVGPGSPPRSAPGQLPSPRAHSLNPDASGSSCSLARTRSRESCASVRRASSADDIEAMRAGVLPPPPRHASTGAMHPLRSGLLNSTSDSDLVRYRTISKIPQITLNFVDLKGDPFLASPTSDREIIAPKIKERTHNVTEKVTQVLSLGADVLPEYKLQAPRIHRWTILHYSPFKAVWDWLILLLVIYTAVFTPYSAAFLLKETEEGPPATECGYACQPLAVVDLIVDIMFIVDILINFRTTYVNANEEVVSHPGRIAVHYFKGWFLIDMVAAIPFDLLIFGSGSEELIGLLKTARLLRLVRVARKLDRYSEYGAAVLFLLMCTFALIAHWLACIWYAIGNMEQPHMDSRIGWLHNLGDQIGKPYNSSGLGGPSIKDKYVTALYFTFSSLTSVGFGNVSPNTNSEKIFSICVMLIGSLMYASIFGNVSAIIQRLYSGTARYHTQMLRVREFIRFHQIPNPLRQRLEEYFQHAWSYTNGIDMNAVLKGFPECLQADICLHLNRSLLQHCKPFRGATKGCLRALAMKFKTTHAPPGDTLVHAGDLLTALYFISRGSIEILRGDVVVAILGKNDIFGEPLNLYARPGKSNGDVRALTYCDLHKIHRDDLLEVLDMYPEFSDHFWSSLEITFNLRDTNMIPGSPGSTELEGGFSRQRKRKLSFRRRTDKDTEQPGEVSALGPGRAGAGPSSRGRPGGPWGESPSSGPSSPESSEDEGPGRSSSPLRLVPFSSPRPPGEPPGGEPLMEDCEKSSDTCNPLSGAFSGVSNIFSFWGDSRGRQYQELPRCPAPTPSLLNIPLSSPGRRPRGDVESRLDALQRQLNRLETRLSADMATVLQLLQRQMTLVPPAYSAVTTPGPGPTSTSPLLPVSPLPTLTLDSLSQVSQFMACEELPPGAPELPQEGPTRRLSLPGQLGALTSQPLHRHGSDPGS
Data set [9] can be described thus: Stability in mouse liver microsomes assessed as compound remaining at 1 uM incubated for 30 mins by LC-MS/MS analysis.
Data set [10] is described as follows: Plasma protein binding in mouse at 5 uM incubated for 4 hrs under shaking condition by LC-MS/MS analysis.
Data set [11] in a line: Stability in human liver microsomes assessed as compound remaining at 1 uM incubated for 30 mins by LC-MS/MS analysis.
Data set [12] deals with Zika virus. Kind of data set: Antiviral activity against ZIKV infected in Vero E6 cells assessed as inhibition of viral replication. The following applies: Vero C1008.
Data set [13] is described as follows: Cytotoxicity against African green monkey Vero E6 cells. It counts as toxicity, cell-based, Vero C1008. Conditions: chlorocebus sabaeus.

Chain of Cytochrome P450 2D6 (P10635 whole entry): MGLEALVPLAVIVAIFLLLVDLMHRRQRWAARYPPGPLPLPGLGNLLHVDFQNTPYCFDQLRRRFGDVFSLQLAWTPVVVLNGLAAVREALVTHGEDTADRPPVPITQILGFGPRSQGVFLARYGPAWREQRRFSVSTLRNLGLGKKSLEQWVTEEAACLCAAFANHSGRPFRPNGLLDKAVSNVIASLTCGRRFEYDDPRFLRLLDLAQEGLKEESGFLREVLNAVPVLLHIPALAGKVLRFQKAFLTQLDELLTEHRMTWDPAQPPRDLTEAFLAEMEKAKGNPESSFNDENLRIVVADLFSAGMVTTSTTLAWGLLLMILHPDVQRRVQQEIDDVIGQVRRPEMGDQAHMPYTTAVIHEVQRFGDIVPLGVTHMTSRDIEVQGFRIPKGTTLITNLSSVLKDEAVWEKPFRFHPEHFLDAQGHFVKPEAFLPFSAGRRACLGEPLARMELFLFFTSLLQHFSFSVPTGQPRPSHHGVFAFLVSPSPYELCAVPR

`O=S(=O)(NCCCCNc1ccnc2cc(Cl)ccc12)c1ccc(Cl)cc1`: the EC50 in data set [1] turned out to be 3.2 µM.

`FC(F)(F)c1cc(-c2cc(-c3ccc(NCc4cccnc4)cc3)no2)ccn1` displayed a CC50 at 48 h in data set [2] greater than 100 µM.

In [2], `c1ccc(-c2nc(-c3ccc(NCc4cccnc4)cc3)c[nH]2)cc1` came in with a half-maximal cytotoxic concentration (CC50) at 48 h of 94.1 µM. In addition, in [3], the EC50 came out at 36.8 µM. Moreover, in data set [4], the selectivity ratio worked out at 2.6.

For the compound `N#Cc1ccc(-c2cc(-c3ccc(NCc4cccnc4)cc3)no2)cc1`, the half-maximal cytotoxic concentration (CC50) at 48 h in data set [2] was greater than 100 µM. Also, in [5], the IC50 is greater than 99 µM.

Turning to `FC(F)(F)c1ccc(-c2cc(-c3ccc(NCc4cccnc4)cc3)no2)cc1`, the share remaining at 0.5 h, 1 µM was 51.7% in [6], 79.6% in data set [9] and 71.5% in data set [11]. This compound showed a CC50 at 48 h in [2] greater than 100 µM. Also, the fraction unbound at 4 h, 5 µM is 0.0047 in [7] and 0.003 in data set [10]. For the same compound, in data set [8], the inhibition at 2 h, 10 µM worked out at 5.37%. In data set [5], this compound registered an IC50 greater than 99 µM.

With `COc1ccccc1-c1cc(-c2ccc(NCc3cccnc3)cc2)no1`, the CC50 at 48 h in data set [2] was greater than 100 µM. In addition, the IC50 in data set [5] was determined as 27.1 µM.

Compound `c1ccc(-c2noc(-c3ccc(NCc4cccnc4)cc3)n2)cc1` gave a CC50 at 48 h in data set [2] of 61.4 µM. The compound also showed an EC50 in data set [3] of 5.3 µM. Besides, the selectivity ratio in data set [4] was 11.6.

`FC(F)(F)Oc1ccc(-c2cc(-c3ccc(NCc4cccnc4)cc3)no2)nc1` displayed a CC50 at 48 h in data set [2] greater than 100 µM.

Consider `CCn1c2ccccc2c2cc(NC(=O)Nc3ccc(N)cc3C)ccc21`, for which the EC50 in [12] was determined as 1.67 µM. Further, the CC50 in data set [13] was greater than 12.5 µM.

Take `c1ccc(-c2nnc(-c3ccc(NCc4cccnc4)cc3)o2)cc1`: the CC50 at 48 h in data set [2] is greater than 100 µM. The same compound registered an EC50 in [3] greater than 100 µM.

Consider `Fc1ccc(-c2cc(-c3ccc(NCc4cccnc4)cc3)no2)cc1`, for which the CC50 at 48 h in data set [2] was greater than 100 µM.

On to `Cn1cc(-c2ccc(NCc3cccnc3)cc2)nc1-c1ccccc1`, for which, in data set [2], the CC50 at 48 h was greater than 100 µM. The compound also displayed an EC50 in [3] greater than 100 µM.

In [2], `c1cncc(CNc2ccc(-c3cc(-c4cncnc4)on3)cc2)c1` yielded a CC50 at 48 h greater than 100 µM. The compound also registered an IC50 in [5] of 3.5 µM.

As to `FC(F)(F)Oc1ccccc1-c1cc(-c2ccc(NCc3cccnc3)cc2)no1`, the EC50 in data set [3] was determined as 44.5 µM.

Take `Fc1cccc(-c2cc(-c3ccc(NCc4cccnc4)cc3)no2)c1`: the EC50 in [3] is 3.3 µM.

For `c1ccc(-c2cnc(-c3ccc(NCc4cccnc4)cc3)o2)cc1`, the midpoint of cytotoxicity in data set [2], the CC50 at 48 h, lay at 12.9 µM. The same compound registered an EC50 in [3] of 5.1 µM. Further, the selectivity ratio in data set [4] was determined as 2.5.

The EC50 is the concentration needed to bring the measured effect to its halfway point. In general, CC50 refers to the concentration at which the toxic effect on the cells reaches its halfway point. By IC50 is commonly meant the midpoint of a concentration-inhibition curve. As usually defined, the amount remaining is what is left of the initial amount, in per cent. For orientation: fraction unbound means the share of the substance not bound to proteins or other matrix. The term inhibition denotes the share of the control response that was lost under treatment.
